The subject of one data set is Staphylococcus aureus. The data set can be described thus: Antimicrobial activity against Staphylococcus aureus Tour by tube dilution method. Type of data set: functional.
The subject of the next data set is Streptococcus pyogenes. Kind of data set: Antimicrobial activity against Streptococcus haemolyticus C 203 by tube dilution method. Type of data set: functional.
The test system of the next data set is Streptococcus pneumoniae. The data set can be described thus: Antimicrobial activity against Diplococcus pneumoniae UC41 by tube dilution method. Format: functional.
A further data set concerns Clostridium perfringens. The data set can be described thus: Antimicrobial activity against Clostridium perfringens ISS 30543 by tube dilution method. Type of data set: functional.
The test system of the next data set is Proteus vulgaris. The data set can be described thus: Antimicrobial activity against Proteus vulgaris X19 H ATCC 881 by tube dilution method. Type of data set: functional.
The subject of another data set is Escherichia coli. The data set can be described thus: Antimicrobial activity against Escherichia coli SKF 12140 by tube dilution method. Type of data set: functional.
The test system of a further data set is Shigella sonnei. The data set can be described thus: Antimicrobial activity against Shigella sonnei ATCC 9290 by tube dilution method. Type of data set: functional.
In a further data set the test system is Salmonella typhimurium. Kind of data set: Antimicrobial activity against Salmonella typhimurium Kh by tube dilution method. Type of data set: functional, Salmonella enterica subsp. enterica serovar Typhimurium. The following applies: Salmonella enterica.
For a further data set, the system named is Klebsiella pneumoniae. The data set can be described thus: Antimicrobial activity against Klebsiella pneumoniae I.S.M. by tube dilution method. Format: functional.
The next data set deals with Pseudomonas aeruginosa. Kind of data set: Antimicrobial activity against Pseudomonas aeruginosa ATCC 10145 by tube dilution method. Format: functional.
The next data set relates to Candida albicans. The data set can be described thus: Antimicrobial activity against Candida albicans SKF 2270 by tube dilution method. Type of data set: functional.
Data set [1] has as its system Trichophyton mentagrophytes. The data set can be described thus: Antimicrobial activity against Trichophyton mentagrophytes SKF 17410 by tube dilution method. Format: functional.
The test system of data set [2] is Mycobacterium tuberculosis. The data set can be described thus: Antimicrobial activity against Mycobacterium tuberculosis ATCC 9360 by tube dilution method. Type of data set: functional.
In data set [3] the test system is Mycoplasmoides gallisepticum. The data set can be described thus: Antimicrobial activity against Mycoplasma gallisepticum H21 C.Z.B. by tube dilution method. Type of data set: functional.
Data set [4] has as its system Trichomonas vaginalis. The data set can be described thus: Trichomonastatic activity against Trichomonas vaginalis by tube dilution method. Format: functional.
The test system of data set [5] is Trichomonas vaginalis. Kind of data set: Trichomonacidal activity against Trichomonas vaginalis by tube dilution method. Type of data set: functional.
For data set [6], the system named is Trichomonas vaginalis. Kind of data set: Antimicrobial activity against Trichomonas vaginalis infected in sc dosed mouse. Format: functional.
Data set [7] concerns Trichomonas vaginalis. Kind of data set: Ratio of metronidazole ED50 to compound ED50 for Trichomonas vaginalis infected in sc dosed mouse. Format: functional.
A short description of data set [8]: Toxicity in po dosed mouse infected with Trichomonas vaginalis. Format: organism-based. Particulars: in vivo.

The values below come from ChEMBL document CHEMBL3244225, “Synthesis and biological activity of some vinyl-substituted 2-nitroimidazoles” (J Med Chem, 1977).

Usually MIC stands for the least concentration at which growth counts as inhibited. A higher MIC goes with a less susceptible organism. By ED50 is commonly meant the dose that gives a 50% effect, or the effect in half of the subjects. Read a low ED50 as an effect at a small dose. By LD50 is commonly meant the dose expected to kill half of the subjects tested.

The structures appear in SMILES notation. ≈ marks a conversion by molar mass, not a printed value.

`CC(=O)c1cnc([N+](=O)[O-])n1C`: the MIC against Staphylococcus aureus came to 50 µg/mL (≈ 296 µM); in the data set on Streptococcus pyogenes, 100 µg/mL (≈ 591 µM); in the data set with Streptococcus pneumoniae it was 20 µg/mL (≈ 118 µM); against Clostridium perfringens, 20 µg/mL (≈ 118 µM); in the data set with Proteus vulgaris it was 100 µg/mL (≈ 591 µM); in the data set with Escherichia coli, 10 µg/mL (≈ 59.1 µM). The MIC is 50 µg/mL (≈ 296 µM) with Shigella sonnei; 100 µg/mL (≈ 591 µM) against Salmonella typhimurium; 100 µg/mL (≈ 591 µM) against Klebsiella pneumoniae; above 100 µg/mL with Pseudomonas aeruginosa; above 100 µg/mL against Candida albicans; 50 µg/mL (≈ 296 µM) in data set [1]. The MIC in data set [2] is 50 µg/mL (≈ 296 µM); in data set [3] it was 100 µg/mL (≈ 591 µM); against Trichomonas vaginalis [4], 50 µg/mL (≈ 296 µM); in the data set with Trichomonas vaginalis [5], above 100 µg/mL.

Regarding `CC(/C=C/c1cnc([N+](=O)[O-])n1C)=N\N1CCN(CCO)CC1`, the minimum inhibitory concentration (MIC) in the data set on Staphylococcus aureus was 50 µg/mL (≈ 155 µM); against Streptococcus pyogenes, 100 µg/mL (≈ 310 µM); against Streptococcus pneumoniae it was 100 µg/mL (≈ 310 µM); in the data set with Clostridium perfringens it was 5 µg/mL (≈ 15.5 µM); in the data set on Proteus vulgaris, above 100 µg/mL; in the data set with Escherichia coli it was 100 µg/mL (≈ 310 µM). Moreover, the MIC (with Shigella sonnei; in the data set with Salmonella typhimurium; against Klebsiella pneumoniae; with Pseudomonas aeruginosa; against Candida albicans; in data set [1]) was above 100 µg/mL in each case. The MIC in [2] was 50 µg/mL (≈ 155 µM); in data set [3], above 100 µg/mL; against Trichomonas vaginalis [4], 20 µg/mL (≈ 62 µM); against Trichomonas vaginalis [5], 50 µg/mL (≈ 155 µM).

Take `CC(/C=C/c1cnc([N+](=O)[O-])n1C)=N\NC(N)=S`: the minimum inhibitory concentration (MIC) in the data set with Staphylococcus aureus is 10 µg/mL (≈ 37.3 µM); against Streptococcus pyogenes, 20 µg/mL (≈ 74.5 µM); in the data set on Streptococcus pneumoniae it was above 50 µg/mL; against Clostridium perfringens it was 5 µg/mL (≈ 18.6 µM); in the data set with Proteus vulgaris it was above 50 µg/mL; in the data set with Escherichia coli it was above 50 µg/mL. The MIC (against Shigella sonnei; in the data set with Salmonella typhimurium; against Klebsiella pneumoniae; in the data set with Pseudomonas aeruginosa; against Candida albicans; in data set [1]) was above 50 µg/mL throughout. Also, the MIC in [2] is 10 µg/mL (≈ 37.3 µM); in data set [3], above 50 µg/mL; in the data set with Trichomonas vaginalis [4], 50 µg/mL (≈ 186 µM); in the data set with Trichomonas vaginalis [5] it was 100 µg/mL (≈ 373 µM).

Regarding `CC(/C=C/c1cnc([N+](=O)[O-])n1C)=N\N1CCCC(O)C1` (stereo unspecified), the MIC against Staphylococcus aureus was 20 µg/mL (≈ 68.2 µM); in the data set on Streptococcus pyogenes, above 100 µg/mL; in the data set on Streptococcus pneumoniae, 100 µg/mL (≈ 341 µM); against Clostridium perfringens it was 20 µg/mL (≈ 68.2 µM); in the data set with Proteus vulgaris it was above 100 µg/mL; with Escherichia coli, 100 µg/mL (≈ 341 µM). Also, the MIC in the data set on Shigella sonnei is above 100 µg/mL; against Salmonella typhimurium, above 100 µg/mL; in the data set on Klebsiella pneumoniae it was above 100 µg/mL; against Pseudomonas aeruginosa, above 100 µg/mL; against Candida albicans it was above 100 µg/mL; in data set [1], 100 µg/mL (≈ 341 µM). Further, the MIC in data set [2] is 50 µg/mL (≈ 170 µM); in [3] it was above 100 µg/mL; in the data set on Trichomonas vaginalis [4] it was 20 µg/mL (≈ 68.2 µM); against Trichomonas vaginalis [5], 50 µg/mL (≈ 170 µM).

As for `CCOC(=O)/C=C/c1cnc([N+](=O)[O-])n1C`, the MIC was above 100 µg/mL with Staphylococcus aureus; 100 µg/mL (≈ 444 µM) with Streptococcus pyogenes; 100 µg/mL (≈ 444 µM) in the data set with Streptococcus pneumoniae; 50 µg/mL (≈ 222 µM) in the data set on Clostridium perfringens; above 100 µg/mL with Proteus vulgaris; 50 µg/mL (≈ 222 µM) in the data set on Escherichia coli. Further, the MIC was above 100 µg/mL in the data set on Shigella sonnei; above 100 µg/mL in the data set with Salmonella typhimurium; above 100 µg/mL in the data set on Klebsiella pneumoniae; above 100 µg/mL in the data set with Pseudomonas aeruginosa; above 100 µg/mL in the data set with Candida albicans; 100 µg/mL (≈ 444 µM) in data set [1]. Moreover, the minimum inhibitory concentration (MIC) is 50 µg/mL (≈ 222 µM) in [2], 100 µg/mL (≈ 444 µM) in data set [3], 20 µg/mL (≈ 88.8 µM) against Trichomonas vaginalis [4] and 100 µg/mL (≈ 444 µM) in the data set on Trichomonas vaginalis [5].

`Cc1ncc([N+](=O)[O-])n1CCO` [METRONIDAZOLE]: the results for the MIC with Trichomonas vaginalis [4] and in the data set with Trichomonas vaginalis [5] were 0.5 µg/mL (≈ 2.92 µM) and 2 µg/mL (≈ 11.7 µM), respectively. In the data set with Trichomonas vaginalis [6], this compound yielded an ED50 of 12.3 mg/kg.

As for `CCCC/C(=C\c1cnc([N+](=O)[O-])n1C)[N+](=O)[O-]`, the MIC is 2 µg/mL (≈ 7.87 µM) against Staphylococcus aureus; 5 µg/mL (≈ 19.7 µM) against Streptococcus pyogenes; 2 µg/mL (≈ 7.87 µM) against Streptococcus pneumoniae; 5 µg/mL (≈ 19.7 µM) in the data set with Clostridium perfringens; 50 µg/mL (≈ 197 µM) against Proteus vulgaris; 10 µg/mL (≈ 39.3 µM) in the data set with Escherichia coli. The MIC in the data set on Shigella sonnei was determined as 50 µg/mL (≈ 197 µM); in the data set with Salmonella typhimurium it was 50 µg/mL (≈ 197 µM); in the data set on Klebsiella pneumoniae, 100 µg/mL (≈ 393 µM); in the data set with Pseudomonas aeruginosa, 100 µg/mL (≈ 393 µM); against Candida albicans it was 20 µg/mL (≈ 78.7 µM); in data set [1], 1 µg/mL (≈ 3.93 µM). The MIC in data set [2] was 2 µg/mL (≈ 7.87 µM); in [3] it was 5 µg/mL (≈ 19.7 µM); in the data set on Trichomonas vaginalis [4] it was 10 µg/mL (≈ 39.3 µM); against Trichomonas vaginalis [5], 50 µg/mL (≈ 197 µM). Besides, in the data set on Trichomonas vaginalis [7], the “Ratio ED50” value is above 2.9. The compound also yielded an LD50 in [8] of 500 mg/kg.
